Experiment [1] deals with T1, mGluR5 (Homo sapiens, UniProt P41594).
T1 construct: expressed in transfected cells; host or cells: HEK293
Briefly: Fluorescence-based Ca2+ mobilization assay. The settings on record: HEK293 cells overexpressing mGluR5; L-glutamate at EC80. Format: cell-based. The protocol: In order to measure the activity on the mGluR5, an experiment was carried out to check the change in the intracellular Ca^2+ level using the HEK293 cell line permanently overexpressing the mGluR5. The cells in the cell culture medium were aliquoted into a 384-well plate coated with poly-D-lysine and cultured in a 37° C. incubator supplied with 5% CO2. The next day, the medium was removed and a dye loading buffer—in which a reagent capable of measuring Ca^2+ was dissolved—was added, and then incubated at 37° C. for 60 minutes. The test compounds were dissolved in 100% DMSO at a final concentration of 10 mM to make a stock solution. The starting concentration of […] was prepared from the stock solution, followed by serial dilutions to prepare working solutions (test compound working solutions). The test compound working solutions were added to the cells that were incubated in the dye loading buffer, which were maintained for 30 minutes at room temperature in a light-shielding state before measurement. The Ca^2+ level change induced by L-glutamate at EC80 concentration was measured for 2 minutes using FLIPR Tetra (MDS Analytical Technologies). The fluorescent Ca^2+ signal values in the presence of the test compounds were normalized to the fluorescent signal elicited by […] concentration of L-glutamate as 100% and that elicited by vehicle as 0% to estimate % inhibition of the test compounds. The efficacy of the test compounds was calculated as IC50 values and represented in Table 1. (+: 1,000-2,000 nM, ++: 500-1,000 nM, +++: 100-500 nM, ++++: less than 100 nM).
A general note: Calcium flux is commonly read through the fluorescence of an indicator in the cells.

Experiment [2] concerns the target T2, human 5-HT2AR (Homo sapiens, UniProt P28223).
T2 construct: expressed in transfected cells; host or cells: HEK293
Briefly: HTRF-based IP1 accumulation assay (5-HT2AR antagonistic effect). To be noted: HEK293 cells overexpressing human 5-HT2AR; serotonin at EC80. The experiment is classed as cell-based. The protocol: The 5-HT2AR antagonistic effect of the test compounds was confirmed by measuring the production amount of IP1 using the HEK293 cell line permanently overexpressing the human 5-HT2AR. The test compounds were dissolved in 100% DMSO to a final concentration of 10 mM. The starting concentration of 10 μM was prepared from the stock solution, followed by serial dilutions to prepare working solutions in a buffer containing lithium chloride (LiCl). The cells and compounds prepared in the test buffer were placed in a 96-well plate and incubated at room temperature for 10 minutes. Serotonin of EC80 concentration was added, followed by incubation at 37° C. for 30 minutes in a light-shielding state. To measure IP1 accumulation in cells, JP1-d2 acceptor and IP1-Cryptate donor-which are HTRF-based substances for fluorescence signals-were added and incubated for 1 hour at room temperature in a light-shielded state. The fluorescent emission signals of acceptor and donor were detected, and HTRF ratio values were substracted by mean value of serotonin control. The percentage of activation was calculated by normalization of the serotonin control (0%) and IP1 control (100%). The IC50 values of the test compounds are represented in Table 1. (+: 1,000-2,000 nM, ++: 500-1,000 nM, +++: 100-500 nM, ++++: less than 100 nM).
For orientation: TR-FRET usually uses a lanthanide donor and a delayed reading to cut background.

Experimental findings from US12435051B2, “Dual modulator of mGluR5 and 5-HT2A receptor, and use thereof” (Vivozon Inc., priority 2020, dated 2025) are described below.

T1 sequence (P41594 21-1212): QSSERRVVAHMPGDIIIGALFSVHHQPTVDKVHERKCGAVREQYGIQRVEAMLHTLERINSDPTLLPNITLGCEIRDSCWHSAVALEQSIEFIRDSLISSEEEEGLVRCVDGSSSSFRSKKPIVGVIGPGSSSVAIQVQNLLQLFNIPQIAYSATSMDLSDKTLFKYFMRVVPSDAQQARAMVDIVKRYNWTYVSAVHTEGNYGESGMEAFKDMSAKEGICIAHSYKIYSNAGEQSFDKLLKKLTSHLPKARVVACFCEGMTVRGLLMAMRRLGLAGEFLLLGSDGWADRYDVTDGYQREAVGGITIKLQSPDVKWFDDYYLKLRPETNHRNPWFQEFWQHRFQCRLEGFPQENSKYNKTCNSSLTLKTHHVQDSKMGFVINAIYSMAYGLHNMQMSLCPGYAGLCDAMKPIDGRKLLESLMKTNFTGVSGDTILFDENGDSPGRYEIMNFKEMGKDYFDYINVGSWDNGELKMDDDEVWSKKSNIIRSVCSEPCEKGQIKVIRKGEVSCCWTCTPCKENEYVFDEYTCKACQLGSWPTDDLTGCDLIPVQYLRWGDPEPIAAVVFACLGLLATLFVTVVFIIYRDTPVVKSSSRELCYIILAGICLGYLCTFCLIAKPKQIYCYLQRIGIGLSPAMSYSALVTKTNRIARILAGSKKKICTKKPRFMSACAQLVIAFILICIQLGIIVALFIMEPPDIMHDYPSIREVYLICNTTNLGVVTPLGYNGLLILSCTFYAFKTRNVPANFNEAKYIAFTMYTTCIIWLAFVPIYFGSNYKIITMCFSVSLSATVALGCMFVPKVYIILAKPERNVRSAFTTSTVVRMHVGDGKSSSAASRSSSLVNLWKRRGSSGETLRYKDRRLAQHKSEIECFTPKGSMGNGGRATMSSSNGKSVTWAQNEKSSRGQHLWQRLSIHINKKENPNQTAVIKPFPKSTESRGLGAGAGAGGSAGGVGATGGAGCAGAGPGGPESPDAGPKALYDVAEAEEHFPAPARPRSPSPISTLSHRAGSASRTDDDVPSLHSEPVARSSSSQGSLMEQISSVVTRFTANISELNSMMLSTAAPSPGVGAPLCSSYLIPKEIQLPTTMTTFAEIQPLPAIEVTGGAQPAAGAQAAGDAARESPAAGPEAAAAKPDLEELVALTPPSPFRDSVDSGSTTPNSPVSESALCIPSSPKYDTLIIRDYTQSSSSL
T2 sequence (P28223 whole entry): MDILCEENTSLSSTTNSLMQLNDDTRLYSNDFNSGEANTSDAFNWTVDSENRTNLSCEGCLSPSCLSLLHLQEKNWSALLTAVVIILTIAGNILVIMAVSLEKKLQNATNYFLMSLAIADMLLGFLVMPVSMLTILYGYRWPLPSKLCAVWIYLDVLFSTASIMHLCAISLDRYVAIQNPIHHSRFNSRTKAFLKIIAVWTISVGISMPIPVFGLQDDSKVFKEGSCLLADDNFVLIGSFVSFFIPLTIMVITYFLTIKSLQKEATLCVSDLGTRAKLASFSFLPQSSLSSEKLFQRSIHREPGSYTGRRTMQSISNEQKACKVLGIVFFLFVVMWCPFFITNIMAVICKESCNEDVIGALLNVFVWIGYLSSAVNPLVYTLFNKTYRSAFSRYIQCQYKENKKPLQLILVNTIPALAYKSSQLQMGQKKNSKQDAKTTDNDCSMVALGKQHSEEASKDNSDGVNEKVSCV

The IC50 is the concentration at which inhibition is half-maximal. A higher IC50 goes with weaker potency in that assay. `O=C(NCC1(F)COC1)c1ccc(C#Cc2ccccc2F)cc1` [Example 103, N-((3-fluorooxetan-3-yl)methyl)-4-((2-fluorophenyl)ethynyl)benzamide]: the IC50 in experiment [1] and in experiment [2] was 1000 to 2000 nM each time.

As for `CC1(CNC(=O)c2ccc(C#Cc3ccc(F)cc3)cc2)CCC1` [Example 106, 4-((4-fluorophenyl)ethynyl)-N-((1-methylcyclobutyl)methyl)benzamide], the IC50 is less than 100 nM in experiment [1] and 100 to 500 nM in experiment [2].

For `O=C(NC[C@H]1CCOC1)c1ccc(C#Cc2ccc(F)cc2F)cc1` [Example 109, (R)-4-((2,4-difluorophenyl)ethynyl)-N-((tetrahydrofuran-3-yl)methyl)benzamide], the IC50 in experiment [1] is 500 to 1000 nM; in experiment [2], 100 to 500 nM.

On to `C[C@@H](NC(=O)c1ccc(C#Cc2ccccc2F)cc1)C1CCOCC1` [Example 47, (R)-4-((2-fluorophenyl)ethynyl)-N-(1-(tetrahydro-2H-pyran-4-yl)ethyl)benzamide], for which the IC50 in experiment [1] is less than 100 nM; in experiment [2], 100 to 500 nM.

Consider `O=C(NCC1(NCC(F)(F)F)CCCCC1)c1ccc(C#Cc2ccncc2)cc1` [Example 31, 4-(pyridin-4-ylethynyl)-N-((1-((2,2,2-trifluoroethyl)amino)cyclohexyl)methyl)benzamide], for which the IC50 in experiment [1] and in experiment [2] was 1000 to 2000 nM each time.

For `O=C(NCC1(F)CCOCC1)c1ccc(C#Cc2ccccc2F)cc1` [Example 48, 4-((2-fluorophenyl)ethynyl)-N-((4-fluorotetrahydro-2H-pyran-4-yl)methyl)benzamide], the IC50 in experiment [1] was less than 100 nM; in experiment [2] it was 500 to 1000 nM.

In the case of `O=C(NCC1CC(F)(F)C1)c1ccc(C#Cc2ccc(F)cc2F)cc1` [Example 120, N-((3,3-difluorocyclobutyl)methyl)-4-((2,4-difluorophenyl)ethynyl)benzamide], the IC50 is 100 to 500 nM in experiment [1] and less than 100 nM in experiment [2].

In the case of `O=C(NCC1(NC2CC2)CCCCCC1)c1ccc(C#Cc2ccc(F)c(F)c2)cc1` [Example 18, N-((1-(cyclopropylamino)cycloheptyl)methyl)-4-((3,4-difluorophenyl)ethynyl)benzamide], the IC50 in experiment [1] lay in the range of 1000 to 2000 nM; in experiment [2] it was 500 to 1000 nM.

Consider `CC1(CNC(=O)c2ccc(C#Cc3ccc(F)cc3F)cc2)CCCO1` (centres unmarked) [Example 119, 4-((2,4-difluorophenyl)ethynyl)-N-((2-methyltetrahydrofuran-2-yl)methyl)benzamide], for which the IC50 in experiment [1] and in experiment [2] was less than 100 nM throughout.

For the compound `O=C(NCC1(O)CCC1)c1ccc(C#Cc2ccccc2F)cc1` [Example 57, 4-((2-fluorophenyl)ethynyl)-N-((1-hydroxycyclobutyl)methyl)benzamide], the IC50 was less than 100 nM in experiment [1] and 500 to 1000 nM in experiment [2].

`NC(=O)CC1(CNC(=O)c2ccc(C#Cc3ccccc3F)cc2)CCOCC1` [Example 78, N-((4-(2-amino-2-oxoethyl)tetrahydro-2H-pyran-4-yl)methyl)-4-((2-fluorophenyl)ethynyl)benzamide]: the results for the IC50 in experiment [1] and in experiment [2] were 100 to 500 nM and 1000 to 2000 nM, respectively.

In the case of `CC(C)(C)CNC1(CNC(=O)c2ccc(C#Cc3ccccc3F)cc2)CCCCC1` [Example 28, 4-((2-fluorophenyl)ethynyl)-N-((1-(neopentylamino)cyclohexyl)methyl)benzamide], the IC50 is 1000 to 2000 nM in experiment [1] and 100 to 500 nM in experiment [2].

For `O=C(NCC1CCC(F)(F)CC1)c1ccc(C#Cc2ccc(F)cc2F)cc1` [Example 121, N-((4,4-difluorocyclohexyl)methyl)-4-((2,4-difluorophenyl)ethynyl)benzamide], the IC50 is less than 100 nM in experiment [1] and 500 to 1000 nM in experiment [2].

As to `CC1(CNC(=O)c2ccc(C#Cc3ccc(F)cc3F)cc2)CCCC1` [Example 108, 4-((2,4-difluorophenyl)ethynyl)-N-((1-methylcyclopentyl)methyl)benzamide], the IC50 is less than 100 nM in experiment [1] and 100 to 500 nM in experiment [2].

With `O=C(NC[C@@H]1CCCO1)c1ccc(C#Cc2ccc(F)cc2)cc1` [Example 111, (S)-4-((4-fluorophenyl)ethynyl)-N-((tetrahydrofuran-2-yl)methyl)benzamide], the IC50 in experiment [1] and in experiment [2] was 100 to 500 nM throughout.

Regarding `CNC(=O)C1(CNC(=O)c2ccc(C#Cc3ccccc3F)cc2)CCOCC1` [Example 53, 4-((4-((2-fluorophenyl)ethynyl)benzamido)methyl)-N-methyltetrahydro-2H-pyran-4-carboxamide], the IC50 in experiment [1] is 500 to 1000 nM; in experiment [2] it was 1000 to 2000 nM.

Regarding `O=C(NC[C@@H]1CCCOC1)c1ccc(C#Cc2ccc(F)cc2F)cc1` [Example 124, (S)-4-((2,4-difluorophenyl)ethynyl)-N-((tetrahydro-2H-pyran-3-yl)methyl)benzamide], the IC50 in experiment [1] and in experiment [2] was 100 to 500 nM each time.

As to `O=C(NCC1(NC2CC2)CCC1)c1ccc(C#Cc2ccc(F)cn2)cc1` [Example 4, N-((1-(cyclopropylamino)cyclobutyl)methyl)-4-((5-fluoropyridin-2-yl)ethynyl)benzamide], the IC50 in experiment [1] was in the range of 1000 to 2000 nM; in experiment [2] it was 100 to 500 nM.

With `CCC1(CNC(=O)c2ccc(C#Cc3ccc(F)cc3)cc2)COC1` [Example 112, N-((3-ethyloxetan-3-yl)methyl)-4-((4-fluorophenyl)ethynyl)benzamide], the IC50 in experiment [1] and in experiment [2] was 100 to 500 nM each time.

For `CC(C)NC1(CNC(=O)c2ccc(C#Cc3ccccc3F)cc2)CCCC1` [Example 30, 4-((2-fluorophenyl)ethynyl)-N-((1-(isopropylamino)cyclopentyl)methyl)benzamide], the IC50 in experiment [1] was 500 to 1000 nM; in experiment [2] it was less than 100 nM.

Take `O=C(NCC1CCOCC1)c1ccc(C#Cc2ccccc2F)cc1F` [Example 35, 2-fluoro-4-((2-fluorophenyl)ethynyl)-N-((tetrahydro-2H-pyran-4-yl)methyl)benzamide]: the IC50 in experiment [1] was less than 100 nM; in experiment [2] it was 1000 to 2000 nM.

On to `CC1(CNC(=O)c2ccc(C#Cc3ccccc3F)c(F)c2)COC1` [Example 84, 3-fluoro-4-((2-fluorophenyl)ethynyl)-N-((3-methyloxetan-3-yl)methyl)benzamide], for which the IC50 in experiment [1] and in experiment [2] was 1000 to 2000 nM in each case.

Turning to `CN(C)C(=O)CC1(CNC(=O)c2ccc(C#Cc3ccccc3F)cc2)CCCCC1` [Example 81, N-((1-(2-(dimethylamino)-2-oxoethyl)cyclohexyl)methyl)-4-((2-fluorophenyl)ethynyl)benzamide], the results for the IC50 in experiment [1] and in experiment [2] were 500 to 1000 nM and 100 to 500 nM, respectively.

Consider `COC(=O)CC1(CNC(=O)c2ccc(C#Cc3ccccc3F)cc2)CCCCC1` [Example 74, methyl 2-(1-((4-((2-fluorophenyl)ethynyl)benzamido)methyl)cyclohexyl)acetate], for which the IC50 lay in the range of 100 to 500 nM in experiment [1] and 500 to 1000 nM in experiment [2].

For `O=C(NCC1(N2CCOCC2)CCC1)c1ccc(C#Cc2ccccc2F)cc1` [Example 96, 4-((2-fluorophenyl)ethynyl)-N-((1-morpholinocyclobutyl)methyl)benzamide], the results for the IC50 in experiment [1] and in experiment [2] were 1000 to 2000 nM and 500 to 1000 nM, respectively.

Turning to `O=C(NCC1(NC2CC2)CCCCCC1)c1ccc(C#Cc2ccc(F)cn2)cc1` [Example 15, N-((1-(cyclopropylamino)cycloheptyl)methyl)-4-((5-fluoropyridin-2-yl)ethynyl)benzamide], the 50% inhibitory concentration (IC50) in experiment [1] is 500 to 1000 nM; in experiment [2] it was 100 to 500 nM.

With `O=C(CC1(CNC(=O)c2ccc(C#Cc3ccccc3F)cc2)CCCCC1)NO` [Example 79, 4-((2-fluorophenyl)ethynyl)-N-((1-(2-(hydroxyamino)-2-oxoethyl)cyclohexyl)methyl)benzamide], the IC50 lay within 100 to 500 nM in experiment [1] and 1000 to 2000 nM in experiment [2].

Consider `O=C(NCC1CCCO1)c1ccc(C#Cc2ccccc2F)cc1` (centres unmarked) [Example 71, 4-((2-fluorophenyl)ethynyl)-N-((tetrahydrofuran-2-yl)methyl)benzamide], for which the IC50 is less than 100 nM in experiment [1] and 500 to 1000 nM in experiment [2].
